# Results reported in US20170114021A1, “HALOGEN-SUBSTITUTED COMPOUNDS” (priority 2014, published 2017).
# What was measured:
# Ctenocephalides felis [1] = assay: Ctenocephalides felis oral test (CTECFE); type: in vivo; details: application rate 100 ppm in citrated cattle blood; after 2 days
# Experimental: Ctenocephalides felis—Oral Test (CTECFE) Solvent: dimethyl sulphoxide
# To produce a suitable preparation of active compound, 10 mg of active compound are mixed with 0.5 ml of dimethyl sulphoxide. Dilution with citrated cattle blood gives the desired concentration.
# About 20 unfed adult cat fleas (Ctenocephalides felis) are placed into a chamber which is closed at the top and bottom with gauze. A metal cylinder whose bottom end is closed with parafilm is placed onto the chamber. The cylinder contains the blood/active compound preparation, which can be imbibed by the fleas through the parafilm membrane.
# After 2 days, the kill in % is determined. 100% means that all of the fleas have been killed; 0% means that none of the fleas have been killed.
# Boophilus microplus = Boophilus microplus injection test (BOOPMI Inj); type: in vivo; details: application rate 20 μg/animal; injection into abdomen
# Experimental: Boophilus microplus—Injection Test (BOOPMI Inj) Solvent: dimethyl sulphoxide
# To produce a suitable preparation of active compound, 10 mg of active compound are mixed with 0.5 ml of solvent and the concentrate is diluted with solvent to the desired concentration.
# 1 μl of the active compound solution is injected into the abdomen of 5 engorged adult female cattle ticks (Boophilus microplus). The animals are transferred into dishes and kept in a climate-controlled room.
# The activity is assessed after the desired time by laying of fertile eggs. Eggs which are not visibly fertile are stored in a climate-controlled cabinet until the larvae hatch after about 42 days. An efficacy of 100% means that none of the ticks has laid any fertile eggs; 0% means that all the eggs are fertile.
# Spodoptera frugiperda = Spodoptera frugiperda spray test (SPODFR); type: in vivo; details: application rate 100 g/ha; maize leaf discs; after 7 days
# Experimental: Spodoptera frugiperda—Spray Test (SPODFR)
# Solvent: 78.0 parts by weight of acetone • • 1.5 parts by weight of dimethylformamide Emulsifier: alkylaryl polyglycol ether
# (§1) To produce a suitable preparation of active compound, 1 part by weight of active compound is dissolved using the specified parts by weight of solvent and made up with water containing an emulsifier concentration of 1000 ppm until the desired concentration is attained. To produce further test concentrations, the preparation is diluted with emulsifier-containing water.
# Leaf discs of maize (Zea mays) are sprayed with an active compound preparation of the desired concentration and, after drying, populated with caterpillars of the armyworm (Spodoptera frugiperda).
# After 7 days, efficacy in % is determined. 100% means that all the caterpillars have been killed; 0% means that no caterpillars have been killed.
# Rhipicephalus sanguineus = Rhipicephalus sanguineus in vitro contact test; type: in vivo; details: application rate 5 μg/cm^2; adult dog ticks; after 48 h
# Experimental: Rhipicephalus sanguineus—In Vitro Contact Tests
# (§2) For the coating of the test tubes, 9 mg of active compound are first dissolved in 1 ml of acetone p.a. and then diluted to the desired concentration with acetone p.a. 250 μl of the solution are distributed homogeneously on the inner walls and the base of a 25 ml test tube by turning and rocking on an orbital shaker (rocking rotation at 30 rpm for 2 h). With 900 ppm active compound solution and internal surface 44.7 cm^2, given homogeneous distribution, an area-based dose of 5 μg/cm^2 is achieved.
# After the solvent has evaporated off, the tubes are populated with 5-10 adult dog ticks (Rhipicephalus sanguineus), sealed with a perforated plastic lid and incubated in a horizontal position in the dark at room temperature and ambient humidity. After 48 h, efficacy is determined. To this end, the ticks are knocked to the floor of the tube and incubated on a hotplate at 45-50° C. for not more than 5 min. Ticks which remain motionless on the floor or move in such an uncoordinated manner that they are unable to deliberately avoid the heat by climbing upwards are considered to be dead or moribund.
# An efficacy of 100% means that all the ticks were dead or moribund. 0% efficacy means that none of the ticks had been harmed.
# [2] = log P by HPLC on reversed-phase column (C18), EEC Directive 79/831 Annex V.A8; type: physicochemical; details: reversed-phase C18 HPLC column; HPLC, C18, acetonitrile/water with formic acid gradient; read-out: log P
# Experimental: ^a) Unless indicated otherwise, the following method was used to determine the log P values and masses: The determination of the given log P values was carried out in accordance with EEC Directive 79/831 Annex V.A8 by HPLC (High Performance Liquid Chromatography) on a reversed-phase column (C18). Agilent 1100 LC system; 50*4.6 Zorbax Eclipse Plus C18 1.8 micron; mobile phase A: acetonitrile (0.1% formic acid); mobile phase B: water (0.09% formic acid); linear gradient from 10% acetonitrile to 95% acetonitrile in 4.25 min, then 95% acetonitrile for a further 1.25 min; oven temperature 55° C.; flow rate: 2.0 ml/min. Mass detection is effected by means of an Agilend MSD system.
# Lucilia cuprina = Lucilia cuprina test (LUCICU); type: in vivo; details: application rate 100 ppm; L1 larvae; after 2 days
# Experimental: Lucilia cuprina-Test (LUCICU) Solvent: dimethyl sulphoxide
# (§3) To produce a suitable preparation of active compound, 10 mg of active compound are mixed with 0.5 ml of dimethyl sulphoxide, and the concentrate is diluted with water to the desired concentration.
# About 20 L1 larvae of the Australian sheep blowfly (Lucilia cuprina) are transferred into a test vessel containing minced horsemeat and the active compound preparation of the desired concentration.
# After 2 days, the kill in % is determined. 100% means that all the larvae have been killed; 0% means that no larvae have been killed.
# Phaedon cochleariae = Phaedon cochleariae spray test (PHAECO); type: in vivo; details: application rate 100 g/ha; Chinese cabbage leaf discs; after 7 days
# Experimental: Phaedon cochleariae—Spray Test (PHAECO) Solvent: 78.0 parts by weight of acetone • • 1.5 parts by weight of dimethylformamide Emulsifier: alkylaryl polyglycol ether
# as §1
# After 7 days, efficacy in % is determined. 100% means that all the beetle larvae have been killed; 0% means that no beetle larvae have been killed.
# Ctenocephalides felis [3] = assay: Ctenocephalides felis in vitro contact test; type: in vivo; details: application rate 5 μg/cm^2; adult cat fleas; after 48 h
# Experimental: Ctenocephalides felis—In Vitro Contact Test
# as §2
# After the solvent has evaporated off, the tubes are populated with 5-10 adult cat fleas (Ctenocephalides felis), sealed with a perforated plastic lid and incubated in a horizontal position at room temperature and ambient humidity. After 48 h, efficacy is determined. To this end, the test tubes are stood upright and the fleas are knocked to the base of the tube. Fleas which remain motionless at the base or move in an uncoordinated manner are considered to be dead or moribund.
# 100% efficacy means that all the fleas were dead or moribund. 0% efficacy means that no fleas were harmed.
# Tetranychus urticae = Tetranychus urticae spray test, OP-resistant (TETRUR); type: in vivo; details: application rate 100 g/ha; bean leaf discs; after 6 days
# Experimental: Tetranychus urticae—Spray Test, OP-Resistant (TETRUR) Solvent: 78.0 parts by weight of acetone • • 1.5 parts by weight of dimethylformamide Emulsifier: alkylaryl polyglycol ether
# as §1
# Discs of bean leaves (Phaseolus vulgaris) infested by all stages of the greenhouse red spider mite (Tetranychus urticae) are sprayed with an active ingredient formulation of the desired concentration.
# After 6 days, efficacy in % is determined. 100% means that all the spider mites have been killed; 0% means that no spider mites have been killed.
# Amblyomma hebraeum = assay: Amblyomma hebaraeum test (AMBYHE), tick nymph immersion; type: in vivo; details: application rate 20 ppm; tick nymphs; after 42 days
# Experimental: Amblyomma hebaraeum Test (AMBYHE) Solvent: dimethyl sulphoxide
# as §3
# Tick nymphs (Amblyomma hebraeum) are placed into perforated plastic beakers and immersed in the desired concentration for one minute. The ticks are transferred on filter paper into a Petri dish and stored in a climate-controlled cabinet.
# After 42 days, the kill in % is determined. 100% means that all of the ticks have been killed; 0% means that none of the ticks have been killed.
# Musca domestica = Musca domestica test (MUSCDO); type: in vivo; details: application rate 100 ppm; adult houseflies; after 2 days
# Experimental: Musca domestica-Test (MUSCDO) Solvent: dimethyl sulphoxide
# as §3
# Vessels containing a sponge treated with sugar solution and the active compound preparation of the desired concentration are populated with 10 adult houseflies (Musca domestica).
# After 2 days, the kill in % is determined. 100% means that all of the flies have been killed; 0% means that none of the flies have been killed.
# [4] = tested on: Boophilus microplus Parkhurst strain, SP-resistant; assay: Boophilus microplus dip test (BOOPMI Dip); type: in vivo; details: application rate 20 ppm; engorged adult female cattle ticks; after 7 days
# Experimental: Boophilus microplus—Dip Test (BOOPMI Dip) Test animals: cattle ticks (Boophilus microplus) Parkhurst strain, SP-resistant Solvent: dimethyl sulphoxide
# 10 mg of active compound are dissolved in 0.5 ml of dimethyl sulphoxide. To produce a suitable formulation, the active compound solution is diluted with water to the concentration desired in each case.
# This active compound preparation is pipetted into tubes. 8-10 engorged adult female cattle ticks (Boophilus microplus) are transferred into a further tube with holes. The tube is immersed into the active compound preparation, and all the ticks are completely wetted. After the liquid has run out, the ticks are transferred on filter discs into plastic dishes and stored in a climate-controlled room.
# Efficacy is assessed after 7 days by laying of fertile eggs. Eggs which are not visibly fertile are stored in a climate-controlled cabinet until the larvae hatch after about 42 days. An efficacy of 100% means that none of the ticks has laid any fertile eggs; 0% means that all the eggs are fertile.
smiles,measurement,setting,value
"Cn1nc(C(F)(F)C(F)(F)F)c(C(F)(F)F)c1-c1cn(-c2ccc(Cl)c(C(=O)NC3CC3)c2)nn1 [Ig-1, 2-chloro-N-cyclopropyl-5-{4-[1-methyl-3-(pentafluoroethyl)-4-(trifluoromethyl)-1H-pyrazol-5-yl]-1H-1,2,3-triazol-1-yl}benzamide]",efficacy (kill),Ctenocephalides felis [1],100%
same,efficacy (laying of fertile eggs),Boophilus microplus,100%
same,efficacy,Spodoptera frugiperda,100%
same,efficacy,Rhipicephalus sanguineus,100%
same,chromatographic logP,[2],3.67
same,efficacy (kill),Lucilia cuprina,100%
same,efficacy,Phaedon cochleariae,100%
same,efficacy,Ctenocephalides felis [3],100%
same,efficacy,Tetranychus urticae,100%
same,efficacy (kill),Amblyomma hebraeum,100%
same,efficacy (kill),Musca domestica,100%
same,efficacy (laying of fertile eggs),[4],100%
